From patent publication US9365851B2, “Spalt-like transcription factor 4 (SALL4) and uses thereof” (National University of Singapore, priority 2011, dated 2016) come the findings set out here.

One assay concerns SNU-398 cells. As to the kind of experiment: Subcutaneous transplantation of peptide pre-treated SNU-398 cells into NOD/SCID mice. The assay is classed as in vivo. Particulars: for subcutaneous tumor volume / size: cells treated in vitro with 20 μM peptide. How it is done:
Cell viability was determined 72 hours after peptide treatments. Absorbance at 490 nm is directly correlated to cell viability. Wild type functional SALL4 peptide (wt), mutant non-functional SALL4 peptide (Mut.), trichostatin A (TSA), scrambled control peptide (Scr.), wild type peptide+PTEN inhibitor SF1670 (wt+Inh.) were given to the cells at the indicated concentration. PTEN inhibitor concentration was 400 nM. (31C, 31D) Western blot analyses of the effects of peptides on PTEN, AKT, and pAKT expression on SNU-398 (31C) and SNU-387 (31D) cells 72 hours following peptide treatments. 20 μM of wt or Scr. peptide or 100 nM of TSA was used. PTEN inhibitor concentration was 400 nM. (31E) Representative images show NOD/SCID mice transplanted with Scr peptide- and wt peptide-treated SNU-398 cells (left) and the dissected subcutaneous tumors (right). Arrow indicates subcutaneous tumor. (31F) Growth curve of subcutaneous tumors (left panel) and tumor weight of tumors dissected at day 26 post-transplantation (right panel). Results are mean±s.d. n=5; * P<0.05. (31G) Representative images show NOD/SCID mice transplanted with 3 million SNU-398 cells at the left flank and treated intraperitoneally for five consecutive days with 56 mg/kg body weight TAT-Mut. peptide or 60 mg/kg body weight wt peptide (top panel) and the dissected subcutaneous tumors (bottom). (31H) Tumor weight of tumors dissected at day 18 post-transplantation and post-treatment of mice treated intraperitoneally with TAT fusion peptides as described in 5 g. Results are mean±s.d. n=5; * P<0.05.
To test the therapeutic effect of this peptide in vivo, SNU-398 cells were subjected to in vitro treatment with 20 μM of wt or Scr. peptide and transplanted the peptide-treated cells subcutaneously into the flanks of NOD/SCID mice.

In a further assay the test system is PTEN promoter region. As to the kind of experiment: ChIP-qPCR of H3 acetylation at the PTEN promoter in SNU-398 cells. The assay is classed as cell-based, human. Particulars: SNU-398, ChIP-qPCR. An excerpt:
FIGS. 9A-9E: The wild type peptide blocks SALL4 repression of PTEN. (9A) Flow cytometry analysis on SNU-398 cells treated with Pep-1 carrier peptide alone (top panel), wild type peptide alone (middle panel), or Pep-1 carrier+peptide (lower panel). […] (9B) Confocal images of the distribution of FITC-labeled peptide in SNU-398 cells treated as shown in (9A). (9C) The endogenous SALL4 interaction with HDAC is blocked by wild type (wt) but not scrambled (scr) peptide. SALL4 was immunoprecipitated from SNU-398 nuclear extracts (1×10^6 cells) pre-treated with wild type or scrambled peptides as indicated using an anti-SALL4 antibody. Immunoprecipitates were analyzed by Western blot using HDAC1 (top panel) or SALL4 (lower panel) antibodies. […] Equal amount of SALL4 protein was present in all samples. In Lane 4 (“10% input”), 10% of the amount of nuclear extract used in lanes 1-3 was subjected to Western blot analysis without immunoprecipitation. […] Enrichment with control IgG was set at 1.
Whether this peptide can reverse the repressive effect of SALL4 on its target genes was then tested. Pten was chosen as an example since it is one of genes implicated in SALL4-mediated leukemogenesis. In addition, it was previously reported that SALL4 and NuRD component HDAC2 shared the same binding site at a specific Pten promoter region identified by a ChIP assay. When SALL4 was overexpressed in 293T cells, an enrichment of SALL4 as well as HDAC2 but a decreased H3 acetylation at this binding site were observed, which was correlated with a decreased Pten mRNA expression. It is likely that SALL4 recruits the NuRD complex in repressing Pten expression. If this model of the role of wt peptide is correct, then it could compete with endogenous SALL4 in recruiting NuRD to the binding site on Pten promoter. […] SNU-398 cells were treated with Scr or wt peptide and then evaluated for the Pten mRNA expression, as well as the status of HDAC2 binding and H3 acetylation at the Pten promoter region.
Then tested was whether this peptide could reverse the repressive effect of SALL4 on its target genes. The focus was onPTEN, since it is implicated in SALL4-mediated leukemogenesis (Yang et al., Blood, 112:805-813 (2008); Lu et al., PLoS One, 4:e5577 (2009)). In addition, it was previously reported that SALL4 could specifically bind to the PTEN promoter region in a chromatin immunoprecipitation (ChIP) assay (Lu et al., PLoS One, 4:e5577 (2009)). […] To test this possibility, SNU-398 cells were treated with scrambled or wild type peptide and subsequently evaluated for PTEN expression and H3 acetylation at the SALL4 binding site at the PTEN promoter region. […]

With “H-MSRRKQAKPQHI-OH [wt peptide, MSRRKQAKPQHI]”, the “subcutaneous tumor volume / size” value in the assay on SNU-398 cells is “significantly reduced”. Besides, the “tumor burden (weight post-dissection)” value in the assay with SNU-398 cells (day 26) is “the tumor load was reduced”. For the same substance, the results for the “H3 acetylation at the PTEN promoter region” value with PTEN promoter region (listed as Wild type peptide), in the assay on PTEN promoter region (listed as Wt) and in the assay with PTEN promoter region (listed as wild type peptide) were “increased H3 acetylation”, “increased H3 acetylation” and “increased H3 acetylation markers”, respectively.
In the case of “Scr peptide: same 12 amino acids as the wt peptide, but in a scrambled sequence; negative control (SRMRQKIHPKIQ) [reference compound]”, the “subcutaneous tumor volume / size” value in the assay on SNU-398 cells was “grew into larger subcutaneous tumors”. Also, the “H3 acetylation at the PTEN promoter region” value in the assay with PTEN promoter region is “not observed”.
